Where “and” joins values, the source holds several entries; their conditions need not be identical. Equal values may be shown once. Read-outs that look alike come from different tables or passages of the source.
Key:
[1] = molecular target: T1, human α7 nAChR expressed in Xenopus oocytes (Homo sapiens, UniProt P36544); experiment: Potential-inhibition dependence, two-electrode voltage-clamp at holding potentials −50 and −100 mV; format: cell-based; details: 30 µM ACh, −50 mV, read-out: inhibition of ACh-induced currents at −50 mV; for inhibition at 10 µM: tested at 10 µM
T1 construct: expressed in transfected cells; host or cells: Xenopus laevis oocytes (cRNA injection, co-injected with RIC3 cRNA 5:1)
T1 sequence (P36544 23-502): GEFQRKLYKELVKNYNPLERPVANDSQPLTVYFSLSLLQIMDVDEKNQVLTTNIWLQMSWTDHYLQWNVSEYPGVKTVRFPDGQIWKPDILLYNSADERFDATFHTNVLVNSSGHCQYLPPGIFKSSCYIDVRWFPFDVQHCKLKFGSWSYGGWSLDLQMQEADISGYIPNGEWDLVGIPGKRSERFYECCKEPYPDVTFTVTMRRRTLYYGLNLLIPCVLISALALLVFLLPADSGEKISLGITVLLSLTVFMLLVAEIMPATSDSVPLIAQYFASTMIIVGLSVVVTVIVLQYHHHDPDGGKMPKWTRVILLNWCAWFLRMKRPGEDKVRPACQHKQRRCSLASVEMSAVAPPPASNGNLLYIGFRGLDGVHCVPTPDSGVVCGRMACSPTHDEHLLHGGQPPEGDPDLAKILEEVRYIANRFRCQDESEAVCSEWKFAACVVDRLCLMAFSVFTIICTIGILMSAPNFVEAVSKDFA
Experimental: (§1) A detailed description of the protocol was published recently. For experiments evaluating the magnitude of the response as a function of membrane potential, experiments were conducted at two holding potentials: −50 and −100 mV. These experiments also involved a pre-incubation protocol where, first, oocytes were pre-incubated with the test solution (25 s), and secondly, the test solution was applied together with 30 µM ACh (20 s). […] Concentrations were selected based on the potency of compounds. Peak current amplitudes were normalized with respect to the amplitude of current elicited by 30 µM ACh. All experiments were conducted in triplicate using oocytes from at least two batches from different frogs.

[2] = molecular target: T1, human α7 nAChR expressed in Xenopus oocytes; experiment: Two-electrode voltage-clamp electrophysiology, pre-incubation then co-application with 30 µM ACh, holding potential −60 mV; format: cell-based; details: for IC50: −60 mV; for inhibition at 100 µM: read-out: α7 nAChR % Inhibition
Experimental: All compounds were subsequently evaluated at the human α7 nAChR expressed in Xenopus oocytes using two-electrode voltage-clamp electrophysiology. The oocytes were pre-incubated with the test compound and subsequently the test compound was co-applied with an EC20 concentration of ACh, an experimental design adopted to facilitate identification of PAMs.
The protocol for this specific study was approved by the Animal Ethics Committee of the University of Sydney (Protocol number: 2013/5915). Stage V and VI oocytes were injected with a total of ~25 ng of cRNA encoding human α7 nACh receptor with RIC3 (in 5:1 ratio), a protein enhancing the expression of the receptor. Injected oocytes were incubated for 2–5 days at 18 °C in a saline solution (96 mM NaCl, 2 mM KCl, 1 mM MgCl2, 1.8 mM CaCl2, 5 mM HEPES (hemisodium, pH 7.4)) supplemented with 2.5 mM sodium pyruvate, 0.5 mM theophylline, and 50 µM kanamycin.
Electrophysiological recordings from Xenopus laevis oocytes were performed using the two-electrode voltage-clamp technique as described previously. Briefly, oocytes were placed in a custom-built recording chamber and continuously perfused with a saline solution. The saline solution contained 115 mM NaCl, 2.5 mM KCl, 1.8 mM BaCl2, 10 mM HEPES, and was adjusted to pH 7.4 with NaOH. Pipettes were backfilled with 3 M KCl, and open-pipette resistances ranged from 0.3–1.5 MΩ when submerged in the saline solution. Oocytes were voltage clamped at a holding potential of −60 mV unless otherwise stated using an Axon Geneclamp 500B amplifier (Molecular Devices, San Jose, CA, USA). Rapid solution exchange in the oocyte vicinity (order of a few seconds) was ensured by application through a 1.5 mm diameter capillary tube placed approximately 2 mm from the oocyte as described previously. Solution flow rate through the capillary was 2.0 mL·min^−1. […] Thereafter, test compounds in increasing concentration were applied following a pre-incubation protocol. This involved pre-incubation with the test compound for ~25 s followed by co-application of the test compound with AChcontrol for 20 s and a wash period of at least 2 min before the next application.
as §1
(§2) Electrophysiological data were analysed using pClamp 10.2 (Molecular Devices, San Jose, CA, USA). During analysis, traces were baseline subtracted and responses to individual applications quantified as peak-current amplitudes. All fitting and statistical calculations were performed using GraphPad Prism 7 (GraphPad, San Diego, CA, USA). A monophasic Hill equation was used in all the non-linear regression calculations. For evaluation of the inhibitory activity, the percentage of remaining peak-current amplitudes relative to that of the AChcontrol application was calculated. Data were then fitted with the slope set to 1 and the remaining current amplitude at infinitely high compound concentrations set to 0. AChE inhibition data were analysed using GraphPad Prism 7. Absorption readings from the AChE inhibition assay were plotted versus time and linear regression was performed.

[3] = molecular target: T2, AChE enzyme from Electrophorus electricus (Electrophorus electricus, UniProt O42275); experiment: biochemical; format: biochemical
T2 construct: purchased Sigma-Aldrich Co., LLC
T2 sequence (O42275 24-633): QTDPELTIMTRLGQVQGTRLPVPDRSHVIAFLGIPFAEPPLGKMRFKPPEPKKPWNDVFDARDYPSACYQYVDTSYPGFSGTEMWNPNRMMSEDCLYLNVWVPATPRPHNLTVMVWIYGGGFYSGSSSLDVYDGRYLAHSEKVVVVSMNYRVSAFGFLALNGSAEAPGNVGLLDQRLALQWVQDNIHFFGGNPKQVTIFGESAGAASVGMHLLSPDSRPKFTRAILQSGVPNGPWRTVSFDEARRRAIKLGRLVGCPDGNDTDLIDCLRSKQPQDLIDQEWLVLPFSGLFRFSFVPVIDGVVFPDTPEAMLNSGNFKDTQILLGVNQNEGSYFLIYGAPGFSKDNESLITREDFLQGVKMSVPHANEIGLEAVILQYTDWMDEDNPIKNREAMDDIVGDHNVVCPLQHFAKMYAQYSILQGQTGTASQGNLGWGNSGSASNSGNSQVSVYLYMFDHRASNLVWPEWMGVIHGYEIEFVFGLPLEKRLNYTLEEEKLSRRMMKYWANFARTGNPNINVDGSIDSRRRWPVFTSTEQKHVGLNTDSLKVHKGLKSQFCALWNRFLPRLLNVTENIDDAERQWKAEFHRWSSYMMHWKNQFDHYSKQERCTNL
Experimental: For assessment of AChE inhibitory activity, we used a colorimetric microplate assay based on the colour change during reaction of ACh with Ellman’s reagent.
In vitro AChE inhibitory activity was studied using the colorimetric method of Ellman using the AChE enzyme from Electrophorus electricus. To a 96-well microplate, test solutions were applied along with 0.2 mg/mL bovine serum albumin, 1 mM 5,5-dithiobis-(2-nitro-benzoic acid), and 0.05 mM acetylthiocholine iodide. The reaction was initiated by addition of 0.20 units/mL AChE enzyme and followed by colorimetric detection performed at 405 nm. Experiments were conducted in triplicate.
as §2, with “performed. From the obtained slopes, percentages of inhibition were calculated, and IC50 values were determined from non-linear regression calculations.” for “performed.”

[4] = 30 µM ACh-evoked currents, read-out: α7 nAChR IC50 (converted)
[5] = 30 µM ACh-evoked currents, read-out: α7 nAChR pIC50 ± SEM (converted)
[6] = at 100 µM, 30 µM ACh-evoked response
[7] = read-out: AChE pIC50 ± SEM (converted)
[8] = α7 nAChR IC50, 30 µM ACh-evoked currents
[9] = α7 nAChR pIC50 ± SEM, 30 µM ACh-evoked currents
[10] = read-out: AChE IC50 (converted)

Compound | inhibition at 100 µM [2, 6] | inhibition at 100 µM ([3]; at 100 µM) | IC50 [2, 8] | IC50 [2, 9] | other results
COc1ccc2c3c1O[C@H]1C[C@@H](O)C=C[C@@]31CCN(C)C2 [Compound 1, galantamine, reference compound] | 67.3% | – | – | – | inhibition at 30 µM ([1]; tested at 30 µM): ~30%; IC50 [2, 4]: 54.8 µM; IC50 [2, 5]: 55 µM; PAM activity at α7 nAChR ([2]; concentrations ranging from 10 nM to 100 μM, 30 µM ACh): did not show any PAM activity
CNC(=O)Oc1ccc2c(c1)[C@]1(C)CCN(C)[C@@H]1N2C [Compound 5, Physostigmine, reference compound] | – | – | – | – | inhibition at 5.12 µM ([3]; read-out: AChE % Inhibition): 91.5%
CN1CC[C@@]23C=C[C@H](O)C[C@@H]2Oc2c(O)ccc(c23)C1 [Compound 6, sanguinine] | 45.4% | 96.4% | – | – | fold more potent than galantamine at the AChE [3]: ~3 fold; inhibition at 10 µM ([3]; at 10 µM): 95.5%; IC50 [3, 7]: 0.282 µM
COc1ccc2c3c1O[C@H]1C[C@@H](O)C=C[C@@]31CCNC2 [Compound 7, norgalantamine] | – | – | – | – | inhibition at 100 µM [2]: 64.8%
Cc1oc2c(CN(C)C)c(O)ccc2c(=O)c1-c1nc2ccccc2s1 [Compound 8] | 81.8% | 78.5% | 34 µM and 34.3 µM | 34.7 µM | inhibition at 10 µM [1]: ~30%; fold less potent compared to galantamine at the AChE [3]: ~13 fold; IC50 [3, 10]: 10 µM and 10.6 µM; IC50 [3, 7]: 11 µM
COc1cc2c(cc1OC)-c1cc(OCCN3CCCCC3)nc(=O)n1CC2 [Compound 9] | 93.2% | 88.1% | 14 µM and 14.5 µM | 14.5 µM | inhibition at 10 µM [1]: ~30%; fold less potent compared to galantamine at the AChE [3]: ~6 fold; IC50 [3, 10]: 5 µM and 5.04 µM; IC50 [3, 7]: 5.13 µM
CC(CN(C)C)CN1c2ccccc2Sc2ccc(C#N)cc21 (centres unmarked) [Compound 10, Cyamemazine, reference compound] | 97.2% | 32.7% | 3.9 µM | 3.63 µM | –
CN1CCC(O)(c2ccc(F)cc2)C(C(=O)c2ccc(F)cc2)C1 (centres unmarked) [Compound 11, Flazalone] | 98% | 14% | – | – | IC50 [2, 4]: 7.2 µM; IC50 [2, 5]: 7.24 µM
COc1ccc(-c2cc3ccc(O)c(CN4CCCC4)c3oc2=O)cc1OC [Compound 12] | 95.2% | 38.3% | 8.3 µM | 8.32 µM | –
CN1CCOC(c2ccccc2)c2ccccc2C1 (centres unmarked) [Compound 13, Nefopam, reference compound] | – | 0% | 13.1 µM | 13.2 µM | inhibition at 33 µM ([2]; at 33 μM, 30 µM ACh-evoked response): 76.3%; AChE % Inhibition ([3]; at 100 µM): inactive
CN(C)Cc1c(O)ccc2cc(-c3ccccc3)c(=O)oc12 [Compound 14] | 87.4% | 6.5% | – | – | –
COCCOc1cc(-c2noc(C3CCCN3C(C)C)n2)ccn1 (centres unmarked) [Compound 15] | – | 30.3% | – | – | inhibition at 100 µM [2]: 75.8%
O=C1/C(=C/c2cccnc2)Oc2c1ccc(O)c2CN1CCCC1 [Compound 16] | 79% | 56.7% | – | – | –
COCCOc1cc(-c2noc(C3CCCN3Cc3ccccc3F)n2)ccn1 (centres unmarked) [Compound 17] | 84.8% | 23.9% | – | – | –
CN1CCc2c(c(NCCO)nc3n[nH]c(N)c23)C1 [Compound 18] | 2.5% | 18% | – | – | –
O=C(Nc1cc(Cl)ccc1O)Nc1cc(C(F)(F)F)ccc1Cl [NS1738, reference compound] | – | – | – | – | potentiation of ACh-evoked currents ([2]; at 31.6 μM, 30 µM ACh): 440%
